Source: the supplement of paper PMC10307832

Experiments:
Experiment in all cases: relative viability (nuclei count vs DMSO), 5 days (fraction); higher = more cells survive
[1] = compound: C[C@@]1(C(=O)Nc2ccc(F)nc2)CCCN1c1nc(Nc2cc(C3CC3)n[nH]2)c2cccn2n1 + Cc1nc(Nc2ncc(C(=O)Nc3c(C)cccc3Cl)s2)cc(N2CCN(CCO)CC2)n1 [Dasatinib] (partner 0.075 µM)
In short: (§1)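 Relative viability equals treated-well nuclei counts divided by vehicle-well nuclei counts. Counts came from 4× images of lung cancer cell lines grown in 1536-well plates for 5 days after pin-tool dosing on the day after seeding. Dosing used one drug alone or a fixed anchor-drug dose plus five library-drug doses (not always all listed) in √10 steps, and values are medians of duplicate plates.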

[2] = compound: CC1(C)CNc2cc(NC(=O)c3cccnc3NCc3ccncc3)ccc21 [Motesanib] + CS(=O)(=O)N1CCN(Cc2cc3nc(-c4cccc5[nH]ncc45)nc(N4CCOCC4)c3s2)CC1 [Pictilisib] (partner 1 µM)
In short: as §1

[3] = compound: CC1(C)CNc2cc(NC(=O)c3cccnc3NCc3ccncc3)ccc21 [Motesanib] + CC(C)C[C@H](NC(=O)[C@H](Cc1ccccc1)NC(=O)c1cnccn1)B(O)O [Bortezomib] (partner 0.002 µM)
In short: as §1

[4] = compound: CC1(C)CNc2cc(NC(=O)c3cccnc3NCc3ccncc3)ccc21 [Motesanib] + O=C(c1cc(Cc2n[nH]c(=O)c3ccccc23)ccc1F)N1CCN(C(=O)C2CC2)CC1 [Olaparib] (partner 8 µM)
In short: as §1

Cell Line | relative viability ([1]; first compound 0.04 µM) | relative viability ([1]; first compound 0.1265 µM) | relative viability ([1]; first compound 0.4 µM) | relative viability ([1]; first compound 1.265 µM) | relative viability ([2]; first compound 0.01 µM) | relative viability ([2]; first compound 0.03162 µM) | relative viability ([2]; first compound 0.1 µM) | relative viability ([2]; first compound 0.3162 µM) | relative viability ([2]; first compound 1 µM) | relative viability ([3]; first compound 0.01 µM) | relative viability ([3]; first compound 0.03162 µM) | relative viability ([3]; first compound 0.1 µM) | relative viability ([3]; first compound 0.3162 µM) | relative viability ([3]; first compound 1 µM) | relative viability ([4]; first compound 0.01 µM) | relative viability ([4]; first compound 0.03162 µM) | relative viability ([4]; first compound 0.1 µM) | relative viability ([4]; first compound 0.3162 µM) | relative viability ([4]; first compound 1 µM)
201T | 0.326 | 0.29 | 0.301 | 0.324 | 0.671 | 0.688 | 0.68 | 0.679 | 0.71 | 1.05 | 1.07 | 1.08 | 1.17 | 1.08 | 0.803 | 0.828 | 0.852 | 0.88 | 0.872
A549 | – | – | – | – | 0.515 | 0.478 | 0.504 | 0.574 | 0.57 | – | – | – | – | – | 0.333 | 0.402 | 0.407 | 0.438 | 0.402
A-427 | 0.632 | 0.557 | 0.617 | 0.453 | 0.43 | 0.684 | 0.495 | 0.681 | 0.789 | 1.03 | 0.956 | 0.973 | 0.969 | 1.05 | 0.78 | 0.7 | 0.672 | 0.732 | 0.777
ABC-1 | 0.51 | 0.395 | 0.366 | 0.204 | 0.81 | 0.962 | 0.715 | 0.707 | 0.76 | 0.282 | 0.341 | 0.221 | 0.284 | 0.292 | 0.895 | 0.66 | 0.58 | 1.15 | 0.869
BEN | 0.32 | 0.382 | 0.329 | 0.271 | 0.517 | 0.618 | 0.624 | 0.579 | 0.715 | 0.696 | 0.793 | 0.869 | 0.861 | 0.935 | 1.02 | 1.04 | 0.938 | 1.18 | 1.43
CAL-12T | 0.239 | 0.146 | 0.101 | 0.0918 | – | – | 0.358 | 0.403 | 0.434 | – | – | 0.906 | 1.16 | 0.926 | 0.674 | 0.731 | 0.699 | 0.683 | 0.736
COR-L23 | 0.433 | 0.334 | 0.214 | 0.219 | 0.701 | 0.864 | 0.732 | 0.836 | 0.854 | 1.01 | 0.974 | 1.04 | 1.11 | 0.914 | 0.366 | 0.389 | 0.275 | 0.363 | 0.36
COR-L 105 | 0.3 | 0.208 | 0.185 | 0.18 | 0.489 | 0.439 | 0.395 | 0.49 | 0.385 | 0.873 | 1.01 | 0.939 | 1.02 | 0.785 | 0.767 | 0.761 | 0.745 | 0.725 | 0.804
Calu-6 | – | – | – | – | 0.878 | 0.727 | 0.944 | 0.867 | 0.84 | 0.896 | 1.04 | 0.926 | 1.05 | 0.889 | 0.56 | 0.603 | 0.456 | 0.546 | 0.536
ChaGo-K-1 | 0.505 | 0.486 | 0.522 | 0.443 | – | 0.535 | 0.532 | 0.638 | 0.757 | – | 0.666 | 0.841 | 0.976 | 1.11 | 0.434 | 0.437 | 0.425 | 0.484 | 0.411
EBC-1 | – | – | – | – | 0.503 | 0.366 | 0.302 | 0.385 | 0.335 | 0.637 | 0.56 | 0.557 | 0.537 | 0.559 | 0.732 | 0.674 | 0.694 | 0.729 | 0.783
EKVX | 0.439 | 0.4 | 0.32 | 0.294 | 0.483 | 0.445 | 0.462 | 0.472 | 0.506 | 1.1 | 1.19 | 1.04 | 1.14 | 1.06 | 0.74 | 0.809 | 0.776 | 0.904 | 0.944
EMC-BAC-2 | 0.242 | 0.212 | 0.136 | 0.167 | 0.582 | 0.564 | 0.537 | 0.542 | 0.6 | 1.03 | 1.01 | 1.02 | 1.07 | 1.08 | 0.482 | 0.516 | 0.494 | 0.471 | 0.474
EPLC-272H | 0.275 | – | 0.157 | 0.084 | 0.296 | 0.176 | 0.267 | 0.317 | 0.309 | 0.858 | 0.832 | 0.925 | 0.601 | 1 | 0.779 | 1.33 | 0.759 | 0.689 | 0.745
H3255 | 0.36 | 0.361 | 0.282 | 0.235 | 0.473 | 0.487 | 0.491 | 0.488 | 0.427 | 0.714 | 0.733 | 0.637 | 0.936 | 0.799 | 0.564 | 0.601 | 0.576 | 0.585 | 0.643
HARA | 0.297 | 0.203 | 0.188 | 0.163 | 0.372 | 0.366 | 0.405 | 0.389 | 0.461 | 1.06 | 1.19 | 1.21 | 1.11 | 1.11 | 0.761 | 0.937 | 1.06 | 0.902 | 1.05
HCC-15 | 0.458 | 0.233 | 0.271 | 0.297 | 0.786 | 0.729 | 0.653 | 0.848 | 0.747 | 0.97 | 0.968 | 0.886 | 1.16 | 1.07 | 0.632 | 0.74 | 0.739 | 0.702 | 0.724
HCC-44 | – | – | – | – | 0.672 | 0.611 | 0.891 | 0.673 | 0.474 | 0.905 | 0.877 | 0.994 | 0.974 | 0.885 | 0.944 | 0.926 | 1.07 | 1.09 | 0.95
